Reference: publication PMC2664537 (Journal of medicinal chemistry, 2008)

Assays:
[1] = solubility observed during assay preparation; assay type: physicochemical; settings: for solubility in buffer with 5% DMSO: after being dissolved in DMSO initially
[2] = biological target: rhodopsin in urea-washed rod outer-segment membranes (MII state, R*) (Bos taurus, UniProt P02699); experiment: extra MII stabilization assay; assay type: biochemical, bovine
[3] = biological target: R*-Gt interaction (photoactivated rhodopsin / transducin) (Bos taurus, UniProt P02699); experiment: R*-Gt binding and release assay; design: species or system bovine
Chain of R*-Gt interaction (photoactivated rhodopsin / transducin) (P02699 whole entry): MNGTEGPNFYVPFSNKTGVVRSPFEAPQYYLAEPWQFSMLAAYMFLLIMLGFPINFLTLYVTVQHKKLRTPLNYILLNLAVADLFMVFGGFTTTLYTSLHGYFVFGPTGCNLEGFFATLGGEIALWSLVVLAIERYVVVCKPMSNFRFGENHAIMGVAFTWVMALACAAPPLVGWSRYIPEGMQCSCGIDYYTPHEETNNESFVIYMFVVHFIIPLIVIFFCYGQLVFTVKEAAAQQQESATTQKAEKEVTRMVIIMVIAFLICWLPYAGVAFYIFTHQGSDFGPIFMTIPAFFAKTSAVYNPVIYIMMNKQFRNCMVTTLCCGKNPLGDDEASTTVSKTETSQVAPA

Chain of rhodopsin in urea-washed rod outer-segment membranes (MII state, R*) (P02699 whole entry): as above

C[C@H]1[C@H](C)CC[C@]2(C(=O)O)CC[C@]3(C)C(=CC[C@@H]4[C@@]5(C)C[C@@H](O)[C@H](O)[C@@](C)(CO)[C@@H]5[C@H](O)C[C@]43C)[C@H]12 [Compound 2, madecassic acid]
solubility in buffer with 5% DMSO [1]: soluble

C[C@]12CC[C@H]3[C@@H](CCC4=CC(=O)CC[C@@]43C)[C@@H]1CC[C@@H]2C(=O)COS(=O)(=O)c1ccc(Br)cc1 [Compound 3]
solubility in buffer with 3% DMSO/3% butanol ([1]; dissolved in DMSO/butanol solution, then buffer added): remained soluble

CC1(C)[C@@H](O)CC[C@]2(C)[C@H]3C(=O)C=C4[C@@H]5C[C@@](C)(C(=O)O)CC[C@]5(C)CC[C@@]4(C)[C@]3(C)CC[C@@H]12 [Compound 12]
activity in extra MII assay using pure compound ([2]; pure compound): neither showed significant activity

CC1(C)CC[C@]2(C(=O)O)CC[C@]3(C)C(=CC[C@@H]4[C@@]5(C)C[C@H](O)[C@H](O)[C@@](C)(C(=O)O)[C@@H]5CC[C@]43C)[C@@H]2C1 [Compound 16, medicagenic acid]
EC50 [2]: 350 µM | solubility in buffer with 5% DMSO [1]: soluble | IC50 [3]: 2000 µM
